Reference: patent US9403873B2, “Peptides targeting receptor activator of nuclear factor-κB (RANK) and their applications” (UNIVERSITE DE NANTES, priority 2011, dated 2016)
“Also recorded” adds a separate entry of the source. Ends that are not written are not given here.

Columns and labels:
[1] = system: mesenchymal stem cells (MSCs); experiment: Mineralization of mesenchymal stem cells (Alizarin red staining); format: cell-based; conditions: 100 μM
[2] = Stability of the polypeptide under NMR conditions in phosphate buffer; format: physicochemical; conditions: without protein, 2 weeks
Method: NMR experiments were run at 500.13 MHz for ^1H on a Bruker AVANCE 500 spectrometer with a Linux PC workstation, using standard 5 mm or Shigemi 3 mm tubes with susceptibility matched to solvent ^2H2O/Water sample tubes. The spectra of the polypeptide Pep8 at 0.1, 0.2, 0.4 or 1 mM sample concentrations were recorded in 50 mM sodium phosphate buffer at pH 7.4, prepared in 95% H2O and 5% ^2H2O. Two-dimensional NMR spectra were recorded in the phase-sensitive mode using the States—TPPI method (States et al. 1982). All experiments were carried out using the WATERGATE pulse sequence for water suppression (Piotto et al. 1992) or using the excitation sculpting water suppression (Hwang et al. 1995) to eliminate solvent signal in H2O/^2H2O 95:5 solution. The two-dimensional COSY, TOCSY and NOESY spectra were recorded at 280 K. TOCSY spectra were recorded using a MLEV-17 spin-lock sequence (Bax et al. 1985) with a mixing time (τm) of 35 and 70 ms, respectively. 2D NOESY experiments were recorded at a mixing time (τm) of 100, 200 or 500 ms. The heteronuclear spectra ^1H-^13C HSQC were recorded at 280 K in the same conditions. […] Transferred nuclear Overhauser effect (TRNOESY) spectra of Pep8 with RANK receptor-Fc protein were recorded using a mixing time (Tm) of 100, 200 or 500 ms.

human CD14+ monocytes = format: cell-based
Description: Human peripheral blood mononuclear cells (PBMCs) were isolated by centrifugation over Ficoll gradient (Sigma, Saint Quentin Fallavier, France). CD14^+ cells were magnetically labeled with CD14 Microbeads and positively selected by MACS technology (Miltenyi Biotec, Paris, France) as described previously (Duplomb et al. 2008). CD11b^+ monocytes were purified from murine bone marrow cells obtained by flushing the bone marrow from femora and tibiae of 4-week-old C57BL6 male mice, using MACS microbeads (Baud'huin et al. 2010). The purity of cell preparations was around 96%, as controlled by flow cytometry. Generation of osteoclasts from human CD14^+ and murine CD11b^+ monocytes was performed as described previously (Duplomb et al. 2008, Baud′huin et al. 2010). Briefly, purified cells were cultured in α-minimum essential medium (α-MEM, Gibco/Invitrogen, USA) with 10% fetal calf serum and 25 ng/mL human/murine macrophage colony-stimulating factor (M-CSF, R&D Systems, Abindgton, UK). After 3 days of culture, cell medium was replaced by fresh medium containing M-CSF and recombinant human RANKL (100 ng/mL, R&D system), supplemented with or without a polypeptide of interest (0.5-100 μM) or 50 ng/mL human OPG (R&D Systems) used as a reference inhibitor. Soluble cytokines, receptor and polypeptides were renewed every 3 days until multinucleated osteoclasts had formed. After 12 days of culture for CD14^+ cells and 15 days for CD11b^+ cells, osteoclasts were visualized by TRAP staining (Sigma, France) and cells formed with three or more nuclei were manually counted and analyzed statistically.

[3] = system: RANKL-induced signaling (Akt, p38, ERK, NF-κB) in RAW264.7 cells; experiment: Western blot of RANKL-induced signaling in RAW264.7 cells; format: cell-based, murine
Method: After treatment for 5, 10, 15, 30 or 60 minutes at 37° C., total cell lysates were obtained and protein concentrations were determined as described previously (Duplomb et al. 2008). For NF-κB pathway analysis, separate cytoplasmic and nuclear protein fractions were obtained using the NE-PER Nuclear and Cytoplasmic Extraction Kit (Thermo Scientific, UK). Proteins (40 μg) were run on 10% SDS—PAGE and transferred to Immobilon-P membranes (Millipore, Billerica, Mass., USA), which were then incubated with antibodies to Akt, phospho-Akt, ERK 1/2, phospho-ERK 1/2, p38, phospho-p38, IκBα, p105, p65, p50 and Rel B (Cell Signalling, Danvers, Mass., USA). The labeled proteins were detected using the ECL reagent (Pierce, Rockford, Ill., USA). β-Actin (total cell extract or cytoplasmic fraction), histone H3, and HDAC (nuclear fraction) were used as housekeeping proteins (Cell Signalling).
Murine RAW264.7 cells (ATCC) were cultured in αMEM (Invitrogen) supplemented with 10% FBS (Hyclone). Human embryonic kidney 293 cells (ATCC) were stably transduced with an expression-ready clone (Ex-00007-Lv105, OmicsLink™ Expression Clone, GeneCopoeia™) containing the ORF cDNA of RANK/TNFRSF11A. HEK-RANK cells were maintained in DMEM (Lonza), 10% FBS and 1 μg/mL puromycin.

[4] = system: ovariectomized C57BL/6 mice; experiment: Toxicity in ovariectomized mice (body weight, organ histology); format: in vivo, mouse; conditions: 10 mg/kg/day
Method: During the experimental period, the body weight of the mice was monitored. […] After treatment for five weeks, mice were anesthetized with isoflurane (2%, 1 L/min) and sacrificed by cervical dislocation. Lumbar vertebrae and tibiae were collected for micro-CT analysis and stored at 4° C. in 4% paraformaldehyde until further analysis. Additionally, internal organs (heart, liver, lungs, kidneys, spleen, intestines and thymus) of some mice (n=3 per group) were harvested and stored for toxicity screening.
After sacrifice, organs were conserved and fixed in 4% PFA at 4° C., and embedded in paraffin. Sections (4 μm) were cut and stained with hematoxylin and eosin (Lamoureux et al. 2009, Baud′Huin et al. 2010). General morphology of organs was evaluated on each section using a DMRXA microscope (Leica, Nussloch, Germany).

[5] = 50 μM, 15 minutes of RANKL treatment

Sequence: NVLKLCSGE [Pep8, NVLKLCSGE]
- effect on mineralization of MSCs [1]: nor did the polypeptide at 100 μM exhibit any effect
- stability under experimental NMR conditions [2]: remained stable
- IC50 (human CD14+ monocytes): 40 µM
- inhibitory activity on osteoclastogenesis (human CD14+ monocytes; 50 μM polypeptide, screen of 8 new polypeptides): inhibitory activity similar to that of the RANKL-targeting mimetics OP3-4 and WP9QY
- number of TRAP-positive multinucleated cells, % of the number formed without the polypeptide (human CD14+ monocytes; 100 μM, human cultures): 39%
- osteoclast development with polypeptide alone (human CD14+ monocytes; absence of RANKL): did not modulate osteoclast development
- RANKL-induced degradation of IκBα and nuclear translocation of p50 and p65 ([3]; 50 μM): blocked
- expression levels of RelB in cytoplasmic and nuclear fraction ([3]; 50 μM): no effect
- RANKL-induced Akt phosphorylation ([3]; 50 μM, 5 minutes of RANKL treatment): exhibited an inhibitory effect
- RANKL-induced phosphorylation of ERK [3, 5]: inhibited phosphorylation
- RANKL-induced phosphorylation of p38 [3, 5]: inhibited phosphorylation
- basal phosphorylation of p38 ([3]; absence of RANKL stimulation): decreased phosphorylation of p38 even in the absence of RANKL stimulation
- histopathological evaluation of major organs ([4]; 5 weeks, heart, lungs, liver, kidneys, spleen, skin): No histomorphological difference; also recorded: no toxic effects
- effect on body weight in OVX mice ([4]; 35 days): no effect
